Assays:
[1] = tested on: HIV-1 strain 103 N; test: Retrovirucidal effect on HIV-1 strain 103 N (Table 3); assay type: cell-based
Method in brief: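 HIV-1 103N (RT K103N mutant; 100 TCID50) was exposed to inhibitor for 3 h at room temperature and then washed free of compound by membrane filtration. Residual infectivity was measured on P4 cells: one day after infection, β-galactosidase was read by MUG fluorescence after 3 h at 37 °C.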

[2] = tested on: HIV-1 strain IIIB; test: Retrovirucidal effect on HIV-1 strain IIIB (Table 3); assay type: cell-based
Method in brief: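 Virus (100 TCID50 HIV-1 in cell supernatant) exposed to compound 3 h at room temperature, then washed free of compound by membrane filtration. Residual infectivity measured on P4 cells after one day as β-galactosidase activity with MUG substrate (3 h, 37° C), read by fluorescence.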

[3] = HIV-1 strain 103N (RT Lys-103 to Asn mutant), pIC50=-log IC50, IC50 in M

| Structure (SMILES) | HIV1 pIC50 strain 103N [1, 3] | HIV1 pIC50 strain IIIB ([2]; pIC50=-log IC50, IC50 in M) | HIV1 pIC50 strain 103N ([1]; retrovirucidal effect, HIV-1 strain 103N (Lys-103 to Asn RT mutant), pIC50=-log IC50 (M)) | HIV1 pIC50 strain IIIB ([2]; retrovirucidal effect, pIC50=-log IC50 (M)) |
| --- | --- | --- | --- | --- |
| CCc1c(C)[nH]c(=O)c(N(C)C)c1CSc1cccc(C)c1 [Compound 166] | 4.518 | 5.693 |  |  |
| CCc1c(C)[nH]c(=O)c(N(C)C)c1C(O)c1cc(C)cc(C)c1 (stereo not shown) [Compound 48] | 6.711 | 8 |  |  |
| Cc1cc(C)cc(Cc2c(C)c(C)[nH]c(=O)c2N)c1 [Compound 32] | <5 | 6.104 |  |  |
| CCc1c(C)[nH]c(=O)c(N)c1Cc1ccnc2ccccc12 [Compound 74] | <4 | <4 |  |  |
| CCc1c(C)[nH]c(=O)c(N)c1Cc1ccc(C)cc1 [Compound 8] | 4.39 | 4.373 |  |  |
| CCc1c(C)[nH]c(=O)c(N(C)C)c1Cc1ccccc1Cl [Compound 65] | 6.405 | 8.284 |  |  |
| CCc1c(C)[nH]c(=O)c(N)c1Cc1ccc2ccccc2c1 [Compound 7] | <4 | <4 |  |  |
| CCc1[nH]c(=O)c(N(C)C)c(Cc2cc(C)cc(C)c2)c1C [Compound 28] | 6.943 | 8.032 |  |  |
| Cc1cc(C)cc(Cc2cc(C)[nH]c(=O)c2N)c1 [Compound 100] | <4 | 4.871 |  |  |
| CCc1c(C)[nH]c(=O)c(N(C)CCCSC)c1Cc1cc(C)cc(C)c1 [Compound 61] | 5.922 | 7.693 |  |  |
| CCc1c(C)[nH]c(=O)c(N)c1C(O)c1cc(C)cc(C)c1 (stereo not shown) [Compound 6] | 5.026 | 5.795 |  |  |
| CCc1c(C)[nH]c(=O)c(N(C)CCO)c1Cc1cccc(C)c1 [Compound 145] | 6.028 | 8.42 |  |  |
| CCc1c(C)[nH]c(=O)c(N)c1Cc1ccc(Cl)cc1 [Compound 54] | <5 | <4 |  |  |
| CCc1c(C)[nH]c(=O)c(N(C)C)c1Cc1cn(C)c2ccccc12 [Compound 43] | 6.422 | 7.377 |  |  |
| CCc1c(C)[nH]c(=O)c(N(C)C)c1Cc1ccc(C)cc1C [Compound 34] | <4 | 5.019 |  |  |
| CCc1c(C)[nH]c(=O)c(NC)c1C(=O)c1cccc(Br)c1 [Compound 179] | 7.182 | 8.42 |  |  |
| CCc1c(C)[nH]c(=O)c(N(C)C)c1Cc1cccc(OC)c1 [Compound 121] | 6.948 | 8.469 |  |  |
| CCc1c(C)[nH]c(=O)c(N)c1Cc1cccc(C)c1 [Compound 9] | 5.103 | 5.373 |  |  |
| CCCc1c(C)[nH]c(=O)c(N(C)C)c1Cc1cc(C)cc(C)c1 [Compound 71] | 7.049 | 7.777 |  |  |
| CCc1c(C)[nH]c(=O)c(N(C)C)c1C(=O)c1cc(Br)cs1 [Compound 187] | 7.006 | 8.481 |  |  |
| CCc1c(C)[nH]c(=O)c(N(C)C)c1C(=O)c1cc(Cl)cc(Cl)c1 [Compound 192] | 8.319 | 8.699 |  |  |
| CCc1c(C)[nH]c(=O)c(N)c1Cc1ccc(C)cc1C [Compound 31] | <4 | <4 |  |  |

| Structure (SMILES) | HIV1 pIC50 strain 103N [1, 3] | HIV1 pIC50 strain IIIB ([2]; pIC50=-log IC50, IC50 in M) | HIV1 pIC50 strain 103N ([1]; retrovirucidal effect, HIV-1 strain 103N (Lys-103 to Asn RT mutant), pIC50=-log IC50 (M)) | HIV1 pIC50 strain IIIB ([2]; retrovirucidal effect, pIC50=-log IC50 (M)) |
| --- | --- | --- | --- | --- |
| CCc1c(C)[nH]c(=O)c(N)c1CN(C)Cc1ccccc1 [Compound 97] | <4 | <4 |  |  |
| CCc1c(C)[nH]c(=O)c(N(C)C)c1Cc1cccnc1 [Compound 44] | 6.355 | 7.889 |  |  |
| CCc1c(C)[nH]c(=O)c(N(C)CC)c1C(=O)c1cccc(Br)c1 [Compound 185] | 7.433 | 8.745 |  |  |
| CCc1c(C)[nH]c(=O)c(N(C)CCCCCO)c1Cc1cc(C)cc(C)c1 [Compound 123] | 6.918 | 8.444 |  |  |
| CCc1cccc(Cc2c(CC)c(C)[nH]c(=O)c2N)c1 [Compound 98] | 4.978 | 5.358 |  |  |
| Cc1cc(C)cc(Cc2cc(CCC(C)C)[nH]c(=O)c2N)c1 [Compound 76] | <4 | <5.494 |  |  |
| CCc1c(C)[nH]c(=O)c(N(C)C)c1Cc1c(C)cc(C)cc1C [Compound 59] | <5 | 5.029 |  |  |
| CCCN(CCC)c1c(Cc2cc(C)cc(C)c2)c(CC)c(C)[nH]c1=O [Compound 17] | 4.379 | 6.285 |  |  |
| CCc1c(C)[nH]c(=O)c(N(C)C)c1Cc1ccccc1C [Compound 14] | 5.849 | 7.676 |  |  |
| CCCCN(CCCC)c1c(Cc2cc(C)cc(C)c2)c(CC)c(C)[nH]c1=O [Compound 24] | <4 | 4.262 |  |  |
| CCNc1c(Cc2cc(C)cc(C)c2)c(CC)c(C)[nH]c1=O [Compound 81] | 6.444 | 7.866 |  |  |
| CCc1c(C)[nH]c(=O)c(N)c1Cc1nccn1C [Compound 84] | <4 | <4 |  |  |
| Cc1cc(C)cc(Cc2c(C)c(C)[nH]c(=O)c2N(C)C)c1 [Compound 33] | 6.286 | 8.42 |  |  |
| CCc1c(C)[nH]c(=O)c(NCC(C)C)c1Cc1cc(C)cc(C)c1 [Compound 72] | <4 | 7.079 |  |  |
| CCc1c(C)[nH]c(=O)c(N(C)C)c1Cc1cccc(Br)c1 [Compound 60] | 7.001 | 8.444 |  |  |
| CCc1c(C)[nH]c(=O)c(N(C)CC(C)C)c1Cc1cc(C)cc(C)c1 [Compound 62] | 5.305 | 6.604 |  |  |
| CCc1c(C)[nH]c(=O)c(N(C)CCOC)c1Cc1cccc(C)c1 [Compound 136] | 6.996 | 9 |  |  |
| CCc1c(C)[nH]c(=O)c(N(C)C)c1Oc1cc(C)cc(C)c1 [Compound 201] |  |  | 7.231 | 8.585 |
| CCc1c(C)[nH]c(=O)c(N(C)C)c1Sc1cccc(C)c1 [Compound 160] | 7.177 | 8.678 |  |  |
| Cc1cc(C)cc(Cc2cc[nH]c(=O)c2N)c1 [Compound 15] | 4.138 | <4.17 |  |  |
| CCc1c(C)[nH]c(=O)c(N(C)C)c1C(=O)c1ccc(C)o1 [Compound 158] | 6.625 | 8.041 |  |  |
| CCc1c(C)[nH]c(=O)c(N)c1Cc1ccc(C(F)(F)F)cc1 [Compound 52] | <5 | <4 |  |  |
